Assay results from US20030114460A1, “Pharmaceutical conjugates with enhanced pharmacokinetic characteristics” (priority 2001, published 2003).
Read-outs that look alike come from different tables or passages of the source. Each block holds one compound with its values, some of them ahead of it.

Columns and labels:
[1] = tested on: fungal corneal ulcer; assay: Patient case, fungal corneal ulcer (Example 3); format: in vivo, human; conditions: next day; 5% natamycin drops each hour (day) / every two hours (night) with 5% homatropine four times each day
Method: A […] […] […] comes to a clinic complaining of severe pain, redness, tearing, and photophobia in […] left eye. One day before, the patient was hit by a tree twig while playing football in the park. Severe conjunctival hyperemia with clear discharge is observed. […] Intraocular pressure is also elevated (20 mmHg) by Goldman tonometry. A fungal corneal ulcer is diagnosed. The patient is administered 5% natamycin drops each hour during the day and every two hours at night and 5% homatropine four times each day for […] left eye. […] The patient is experiencing blurriness in the left eye. […] The extent of Na Fl stain is also enlarged. The patient is given 0.15% amphotericin B drops and 5% ketoconazole-conjugate drops once daily in both eyes. […] 5% natamycin drops every two hours are administered around the clock, as well as 5% homatropine two times daily, and 5% ketoconazole-conjugate drops once daily.

[2] = Ocular tissue concentrations after oral and topical dosing; format: in vivo, Rabbits; conditions: rabbit, retina, read-out: retinal memantine concentration
Method: Ocular tissue concentrations were also determined after oral and topical dosing. Rabbits were dosed topically with 35 μl of a 0.1% aqueous solution of memantine twice a day for 7 days. Another subset of rabbits was dosed orally with 2 mg/kg memantine for seven days. At the end of the dosing period ocular tissue concentrations were quantified. The retinal memantine concentrations from topical and oral dosing were essentially equivalent (107 ng/ml and 108 ng/ml, respectively).

[3] = Apparent octanol/water partition coefficient; format: physicochemical; conditions: memantine HCl, printed as Log 3.0
Excerpt: (§1) For example, memantine may be employed as an EEC in accordance with this invention. […] The memantine HCl apparent octanol/water partition coefficient is Log 3.0. The high apparent partition and high solubility appear contradictory. However, the charged amine of memantine HCl (pKa 10.27) results in the high solubility while the free base results in the high partitioning of memantine into octanol. As the HCl salt and free base are in equilibrium, permeation of the free base through biologic tissues results. The impact of a high solubility and a high partition coefficient of the free base are a high bioavailability.

[4] = Aqueous solubility of memantine HCl; format: physicochemical; conditions: HCl salt, pH 6.5 aqueous solution
Excerpt: as §1

[5] = In-vitro melanin binding
[6] = pKa of the charged amine; format: physicochemical; conditions: charged amine of memantine HCl
Excerpt: as §1

[7] = Autoradiography of the eye after topical ophthalmic instillation; format: in vivo, albino and pigmented rabbits
Method: General disposition of topical ophthalmic 1-amino-3,5-dimethyladamantane hydrochloride (memantine) instillation was assessed by autoradiography. Briefly, albino and pigmented rabbits were dosed via topical ophthalmic instillation with a 0.74% aqueous isotonic memantine solution, pH 7.4. After dosing autoradiographic sections of the eye were acquired at 0.25, 0.5, 1, and 2 and 24 hours post dosing. […] Further, a qualitative assessment of residence time could be made from the data.

[8] = format: in vivo, human
Method: A person receives a routine eye examination. […] With their habitual spectacle correction, their best corrected visual acuities are 20/20 in both eyes. Their pupils are found to be round, equally reactive to light, and without any presence of afferent pupillary defect. […] Their intraocular pressures are measured at 32 mmHg in both eyes (with the Goldmann tonometer at 3 pm). […] A Humphrey C-20 automated threshold visual field test indicates the presence of generalized depression in both eyes. […] Their blood pressure is 125/85 and their pulse rate is 60 beats/min. Because of the enlarged cup to disc ratio, elevated intraocular pressures, and the generalized depression of the threshold visual fields, they are diagnosed with open angle glaucoma. Timolol 0.5% 1 drop two times daily in both eyes is prescribed for two weeks. The patient is to return in two weeks for a follow-up evaluation. At the follow-up evaluation, they state that they have been compliant with the prescribed therapy. Their intraocular pressure is measured at 28 mmHg at 1 pm with the Goldmann tonometer. Their blood pressure is 118/86 and their pulse rate is 65 beats/min. Bromonidine-conjugate 0.2% 1 drop two times daily in both eyes is added to the treatment regimen. After another two weeks, the patient has a follow-up evaluation, during which, the patient's intraocular pressure measures 18 mmHg in the right eye, and 17 mmHg in the left eye. Their blood pressure and pulse rate remain normal. The patient is re-evaluated every 3 months with the continuation of combination therapy.

[9] = tested on: CMV retinitis; assay: Patient case, CMV retinitis (Example 5); format: in vivo, human
Excerpt: A person complains of gradual onset of floaters and progressive reduction of vision in both eyes, but without pain. The patient has been HIV+ for 7 years, and was recently hospitalized for Cryptococcal pneumonia. The patient is taking AZT, ddI, indinivir, and has been for the past three years, with moderate compliance. […] Granular hemorrhagic areas are noted throughout the retina, with a “brushfire” appearance. […] These findings are all evidence of CMV retinitis, secondary to AIDS. Ganciclovir-conjugate 0.5% 1 drop four times daily in both eyes is prescribed. At a two-week follow-up examination, the patient states full compliance with the treatment protocol. The patient also states an improvement in vision with a reduced number of floaters. […] The patient is advised to continue the ganciclovir-conjugate drops indefinitely.

Structure (SMILES): C[C@@H]1C/C=C/C=C/C=C/C=C/[C@H](O[C@@H]2O[C@H](C)[C@@H](O)[C@H](N)[C@@H]2O)C[C@@H]2O[C@](O)(C[C@@H](O)C[C@H]3O[C@@H]3/C=C/C(=O)O1)C[C@H](O)[C@H]2C(=O)O [natamycin]
clinical outcome [1]: symptoms have not improved

Structure (SMILES): CC12CC3CC(C)(C1)CC(N)(C3)C2.Cl [memantine, 1-amino-3,5-dimethyladamantane hydrochloride]
concentration at 7 days ([2]; 35 μl of a 0.1% aqueous solution, topical, 35 μl of 0.1% aqueous solution twice a day for 7 days): 107 ng/mL
concentration at 7 days ([2]; oral, 2 mg/kg for seven days): 108 ng/mL
apparent octanol/water partition coefficient (Log) [3]: 3.0
solubility [4]: 3.5%
binding to natural and synthetic melanin [5]: strongly bound
pKa [6]: 10.3
tissue distribution after topical dosing (autoradiography) ([7]; 0.74% aqueous isotonic solution pH 7.4, topical ophthalmic, sections 0.25-24 h post dosing): present in the posterior sclera, choroids and/or retina
half-life in the posterior globe (qualitative) ([7]; albino and pigmented rabbits, topical ophthalmic 0.74% solution): relatively long
binding to ocular melanin (autoradiography intensity in pigmented tissues) ([7]; pigmented tissues, topical ophthalmic 0.74% solution): bound to the ocular melanin
route of penetration from topical delivery (autoradiography) ([7]; topical delivery): trans-retinal route of penetration across the blood-retinal barrier

pulse rate ([8]; human, in vivo): 65 beats/min
Structure (SMILES): CC(C)(C)NC[C@H](O)COc1nsnc1N1CCOCC1 [Timolol]
intraocular pressure ([8]; after two weeks of Timolol 0.5% 1 drop two times daily, both eyes, baseline 32 mmHg, Goldmann tonometer): 28 mmHg
blood pressure ([8]; human, in vivo): 118/86

Structure (SMILES): CC12CC3CC(N)(C1)CC(C(=O)OCC(CO)OCn1cnc4c(=O)[nH]c(N)nc41)(C3)C2 (stereo not shown) [Ganciclovir-conjugate]
clinical outcome ([9]; one month follow-up, same regimen): complete remission of ocular manifestations of CMV retinitis
ophthalmic examination outcome ([9]; two-week follow-up, 0.5% 1 drop four times daily in both eyes): reduction in hemorrhages around the retinal vessels and cotton wool spots
